Results as given in PubChem BioAssay (NCI).
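Compound exposure: 48 hours, 5 concentrations, 96-well plates. TGI is the concentration that stops growth completely.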

What was measured:
Assay in all cases: NCI anticancer screen, dose series, 48 h
A549 NSCLC = system: A549 NSCLC
EKVX NSCLC = system: EKVX NSCLC
IGROV1 ovarian = system: IGROV1 ovarian
KM12 colon = system: KM12 colon
MDA-MB-435 = system: MDA-MB-435
NCI-H522 lung = system: NCI-H522 lung
OVCAR-8 ovarian = system: OVCAR-8 ovarian
SF-268 CNS = system: SF-268 CNS
UACC-257 melanoma = system: UACC-257 melanoma
UACC-62 melanoma = system: UACC-62 melanoma

Structure (SMILES)	TGI (A549 NSCLC)	TGI (EKVX NSCLC)	TGI (IGROV1 ovarian)	TGI (KM12 colon)	TGI (MDA-MB-435)	TGI (NCI-H522 lung)	TGI (OVCAR-8 ovarian)	TGI (SF-268 CNS)	TGI (UACC-257 melanoma)	TGI (UACC-62 melanoma)
CN(C)c1ccc(S(=O)Nc2ccccc2)cc1 (stereo not given)	> 100 µM	> 100 µM	> 100 µM	57.1 µM	57.5 µM	> 100 µM	> 100 µM	> 100 µM	92.9 µM	81.6 µM
COc1cc(NS(C)(=O)=O)ccc1Nc1cc(C)[nH]c2ccc3nccc3c12	> 100 µM	> 100 µM	> 100 µM	> 100 µM	> 100 µM	> 100 µM	> 100 µM	> 100 µM	> 100 µM	> 100 µM
COc1ccc(C2=N/C(=C\c3ccccc3)C(=O)O2)cc1	> 100 µM	> 100 µM	> 100 µM	> 100 µM	> 100 µM		> 100 µM	> 100 µM	> 100 µM	
CCN(CCCN(CC)C(=O)Nc1c(C)cccc1C)C(=O)Nc1c(C)cccc1C	> 100 µM	> 100 µM	> 100 µM	> 100 µM	> 100 µM	> 100 µM	> 100 µM	> 100 µM	> 100 µM	> 100 µM
COc1ccc(NC(=O)CC(=O)N2N=C(N3c4ccccc4Sc4ccccc43)CC2c2ccccc2)cc1 (stereo not given)	> 100 µM	> 100 µM	> 100 µM	> 100 µM	> 100 µM	> 100 µM	> 100 µM	82.9 µM	> 100 µM	> 100 µM
O=C(Nc1nccs1)c1c(O)nc2sccn2c1=O	> 10 µM	> 10 µM	> 10 µM	> 10 µM	> 10 µM	> 10 µM	> 10 µM	> 10 µM		> 10 µM
COc1cccc(CCCNC(=O)Cc2cc(OC)c(OC)cc2CO)c1	> 100 µM	> 100 µM	> 100 µM	> 100 µM	> 100 µM		> 100 µM		> 100 µM	> 100 µM
CN(C)C1(N(C)C)Oc2c(c(=O)n(C)c(=O)n2C)C(c2ccc(Br)cc2)C1(F)F (stereo not given)	> 100 µM	> 100 µM		> 100 µM	> 100 µM			> 100 µM	> 100 µM	> 100 µM
O=[N+]([O-])c1ccc(Oc2c(Cl)cc(S(=O)(=O)/N=C(\NO)Nc3ccc(Cl)cc3)cc2Cl)cc1	27.8 µM	24.9 µM	29.8 µM	29 µM	28 µM	12.7 µM	27.5 µM	35.3 µM	22.6 µM	24.1 µM
CCOC(=O)Cn1c(=O)c2nc(SC)sc2n(-c2ccccc2)c1=O	> 100 µM	> 100 µM	> 100 µM	> 100 µM			> 100 µM		> 100 µM	> 100 µM
O=C(CC(C(=O)c1ccsc1)c1ccc2c(c1)OCO2)c1ccccc1 (stereo not given)	50.7 µM	> 100 µM	> 100 µM	> 100 µM	> 100 µM	> 100 µM	> 100 µM	> 100 µM	> 100 µM	> 100 µM
CC1(C)C2CCC1(C)[C@H](n1c(=O)n([C@@H]3CC4CCC3(C)C4(C)C)c(=O)n([C@@H]3CC4CCC3(C)C4(C)C)c1=O)C2	> 100 µM	67.1 µM	> 100 µM	> 100 µM	> 100 µM	> 100 µM	> 100 µM	> 100 µM	> 100 µM	
CCOC(=O)c1c(C)nc2c3ccccc3c(C#N)c(C)n12	> 100 µM	> 100 µM	> 100 µM	> 100 µM	> 100 µM	89.3 µM	> 100 µM		> 100 µM	> 100 µM
Cc1ccc(C(=C2Sc3ccccc3S2)C(=C2Sc3ccccc3S2)c2ccc(C)s2)s1	> 100 µM	> 100 µM	> 100 µM	> 100 µM	> 100 µM	> 100 µM	> 100 µM	> 100 µM	> 100 µM	> 100 µM
c1c[nH]c(-c2ccc(-c3ccc[nH]3)c3nsnc23)c1	> 70 µM	> 58.4 µM	> 100 µM	> 100 µM	> 70.9 µM	> 100 µM	> 60.4 µM	> 100 µM	> 100 µM	> 100 µM
O=c1[nH]c(=O)n(C2OC(CO)C(O)C2O)c2nc(-c3ccc(-c4ccccc4)cc3)cnc12 (stereo not given)	> 100 µM	> 100 µM	> 100 µM	> 100 µM	> 100 µM	> 100 µM	> 100 µM	> 100 µM	> 100 µM	> 100 µM
N#CC12C(=O)N=C(N)C1(C#N)C(c1ccco1)NC1=C2CCCC1 (stereo not given)	> 100 µM	> 100 µM	> 100 µM	> 100 µM	> 100 µM	> 100 µM	> 100 µM	> 100 µM	> 100 µM	> 100 µM
CSC(=S)N/N=C(\C)c1ccc(S(=O)(=O)N(C)c2ccccc2)cc1	> 100 µM	> 100 µM	> 100 µM	> 100 µM	> 100 µM		> 100 µM	> 100 µM	> 100 µM	> 100 µM
Cc1cc2c3c(nc4ccccc42)C(=O)c2ccccc2-c3n1	44.9 µM	> 100 µM	> 100 µM	14.5 µM	3.11 µM	14.4 µM	34.8 µM	> 100 µM	> 100 µM	4.06 µM
COC(=O)C1CCC(=O)N1C(c1ccc(OC)cc1)c1ccc2c(c1)OCO2 (stereo not given)	> 100 µM	> 100 µM	> 100 µM	> 100 µM	28.7 µM	> 100 µM	> 100 µM	> 100 µM	> 100 µM	> 100 µM
CC1=NS(=O)(=O)c2ccccc2N1	> 100 µM	> 100 µM	> 100 µM	> 100 µM		> 100 µM	> 100 µM	> 100 µM	> 100 µM	> 100 µM
Cc1cn(C2CC(O)C(CO)O2)c(=O)[nH]c1=O (stereo not given)	4450 µM	4950 µM	> 5000 µM	> 5000 µM	> 5000 µM	> 4240 µM	4960 µM	> 5000 µM	> 5000 µM	3680 µM
